Structures can show the parent of a compound that is named as a salt.
Assays:
[1] = tested on: C2C12 cells; assay: Alkaline phosphatase (ALP) assay: potentiation of BMP-2-induced ALP activity; details: C2C12 cells; for cell lifting from culture plates: ALP assay
Description: (§1) Their activity was evaluated by determining the potentiation of alkaline phosphatase activity in sub-optimal doses of BMP in the presence or absence of exogenously added noggin.
The BMP-potentiating activities of compounds may be evaluated by monitoring several markers of the osteoblastic phenotype corresponding to various time points during phenotype differentiation of C2C12 cells towards terminally differentiated osteoblasts.
The C2C12 cells at passages 5 to 10 were subcultured in T-75 cm^2 flasks in DMEM supplemented with 10% FBS at 37° C. in 5% CO2 with humidification. When the flasks reached 80% confluence, the cells were trypsinized and seeded in triplicate.
The C2C12 cells were plated at 200,000 cells/well in 6-well plates and grown overnight in DMEM containing 10% FBS. On day 2, the culture medium was replaced with DMEM containing 2% FBS and the cells were treated with various concentrations of compound for 24 hours. On day 3, the culture medium was replaced with DMEM containing 2% FBS and the cells were treated with 50 ng/ml of BMP-2 and various concentrations of compound for 72 hours. The cells were washed with phosphate-buffered saline (PBS) and lysed by addition of lysis buffer (10 mM Tris-HCl pH 8.0, 1 mM MgCl2 and 1.0% Triton X-100). The cell lysates were centrifuged for 5 minutes at 13,000×g. The supernatant was removed and the aliquots were assayed for ALP activity and protein amount. The ALP activity was measured in triplicate using an ALP assay kit (Sigma-Aldrich, St. Louis, Mo.) in microtiter plates. The protein amount was determined with Bio-Rad protein assay reagent (Bio-Rad, Hercules, Calif.) using bovine serum albumin (BSA) as a standard. The ALP activity (nmoles of p-nitrophenol per ml) was normalized to the protein amount (nmoles of p-nitrophenol per μg).

[2] = tested on: C2C12 cells; assay: BMP-Noggin competitive alkaline phosphatase (ALP) assay; type: cell-based, Mouse; details: BMP-Noggin competitive ALP assay, low cell number and low yield of protein
Description: as §1
Mouse C2C12 cells and Dulbecco's modified Eagle's medium (DMEM) were purchased from ATCC (Manassas, Va.). The non-heat inactivated fetal bovine serum (FBS) was purchased from HyClone Laboratories, Inc. (Logan, Utah). The C2C12 cells at passages 5 to 10 were subcultured in T-75 cm^2 flasks in DMEM supplemented with 10% FBS at 37° C. in 5% CO2 with humidification. When the flasks reached 80% confluence, the cells were trypsinized and seeded in triplicate.
The C2C12 cells were plated at 200,000 cells/well in 6-well plates and grown overnight in DMEM containing 10% FBS. On day 2, the culture medium was replaced with DMEM containing 2% FBS and the cells were treated with 90-100 ng/ml of BMP-2 (as noted in each experiment), various concentrations of compound, and 100-120 ng/ml of noggin (as noted in each experiment) for 72 hours. The cells were washed with phosphate-buffered saline (PBS) and lysed by addition of lysis buffer (10 mM Tris-HCl pH 8.0, 1 mM MgCl2 and 1.0% Triton X-100). The cell lysates were centrifuged for 5 minutes at 13,000×g. The supernatant was removed and the aliquots were assayed for ALP activity and protein amount. The ALP activity was measured in triplicate using an ALP assay kit (Sigma-Aldrich, St. Louis, Mo.) in microtiter plates. The protein amount was determined with Bio-Rad protein assay reagent (Bio-Rad, Hercules, Calif.) using bovine serum albumin (BSA) as a standard. The ALP activity (nmoles of p-nitrophenol per ml) was normalized to the protein amount (nmoles of p-nitrophenol per μg).

[3] = tested on: Sprague Dawley rats; assay: Collagen disc implantation with macrolides in rat ectopic model; type: in vivo; parameters: Ave. (Xray score): scale not given here; details: for Ave. (Xray score) / Results (bone, animals with bone of 4): 100 ul, collagen, no BMP-2, 4 weeks; for De novo bone formation: local, collagen disc, chest implant, absence of BMP-2, 4 weeks
Source text: Sprague Dawley rats about 5-6 weeks of age were chest implanted with a collagen disc (diameter of 1.0 cm and height of 2.0 mm; total volume of 150 cubic millimeters) and doses of macrolides in the absence of BMP-2. After 4 weeks the rats were sacrificed and evaluated for bone growth. […] In certain embodiments, the disclosure contemplates local bone formation for fracture repair, segmental bone defects, spine fusion, bone grafting, and regional bone enhancement for osteopenic bones before they fracture (e.g. hip, vertebral body, etc) by deliver locally to induce local bone formation.

Structure (SMILES) | Fold-increase of BMP-induced ALP (over BMP alone control) [1] | cell lifting from culture plates [1] | other results
C#CC(c1ccccc1)(c1ccccc1)n1ccnc1 [1-(1,1-diphenylprop-2-yn-1-yl)-1H-imidazole] | 7.0 |  | 
O=c1[nH]cc(F)c(=O)[nH]1 [5-fluorouracil] |  | caused cell lifting from culture plates | 
CC[C@@]1(O)C(=O)OCc2c1cc1n(c2=O)Cc2cc3c(N)cccc3nc2-1 [9-aminocamptothecin] | 10.0 |  | 
CCCSc1ccc2nc(NC(=O)OC)[nH]c2c1 [Albendazole, albendazole] |  | caused cell lifting from culture plates | 
C[C@H]1[C@H](OC(=O)CCC(=O)O)O[C@@H]2O[C@@]3(C)CC[C@H]4[C@H](C)CC[C@@H]1[C@@]24OO3 [Artesunate, 4-oxo-4-(((3R,5aS,6R,8aS,9R,10R,12R,12aR)-3,6,9-trimethyldecahydro-3H-3,12-epoxy[1,2]dioxepino[4,3-i]isochromen-10-yl)oxy)butanoic acid] |  |  | cell lifting from culture plates [2]: caused cell lifting from culture plates
Nc1nc2ccc(Cl)cc2c2nc(-c3ccco3)nn12 [CGS 15943, 9-chloro-2-(furan-2-yl)[1,2,4]triazolo[1,5-c]quinazolin-5-amine] |  |  | cell lifting from culture plates [2]: caused cell lifting from culture plates
C=C1/C(=C\C=C2/CCC[C@]3(C)[C@@H]([C@H](C)/C=C/[C@@H](O)C4CC4)CC[C@@H]23)C[C@@H](O)C[C@@H]1O [Calcipotriol, calcipotriol] |  | caused cell lifting from culture plates | 
Nc1ccn([C@@H]2O[C@H](CO)[C@@H](O)[C@@H]2O)c(=O)n1 [Cytarabine HCl] | 2.0 |  | 
COc1cccc2c1C(=O)c1c(O)c3c(c(O)c1C2=O)C[C@@](O)(C(C)=O)C[C@@H]3O[C@H]1C[C@H](N)[C@H](O)[C@H](C)O1 [Daunorubicin hydrochloride] | 7.0 | caused cell lifting from culture plates | 
Nc1ncn([C@H]2C[C@H](O)[C@@H](CO)O2)c(=O)n1 [Decitabine] | 6.0 |  | 
CC(=O)O[C@@]12CO[C@@H]1C[C@H](O)[C@@]1(C)C(=O)[C@H](O)C3=C(C)[C@@H](OC(=O)[C@H](O)[C@@H](NC(=O)OC(C)(C)C)c4ccccc4)C[C@](O)([C@@H](OC(=O)c4ccccc4)[C@H]21)C3(C)C [Docetaxel, (2aR,4S,4aS,6R,9S,11R,12S,12aR,12b S)-12b-acetoxy-9-(((2R,3S)-3-((tert-butoxycarbonyl)amino)-2-hydroxy-3-phenylpropanoyl)oxy)-4,6,11-trihydroxy-4a,8,13,13-tetramethyl-5-oxo-2a,3,4,4a,5,6,9,10,11,12,12a,12b-dodecahydro-1H-7,11-methanocyclodeca[3,4]benzo[1,2-b]oxet-12-yl benzoate] |  | caused cell lifting from culture plates | 
COc1cccc2c1C(=O)c1c(O)c3c(c(O)c1C2=O)C[C@@](O)(C(=O)CO)C[C@@H]3O[C@H]1C[C@H](N)[C@H](O)[C@H](C)O1 [Doxorubicin] | 4.0 |  | 
Clc1ccc(COC(Cn2ccnc2)c2ccc(Cl)cc2Cl)cc1 (centres unmarked) [Econazole nitrate, econazole nitrate] |  | caused cell lifting from culture plates | 
CO[C@H]1C[C@@H]2CC[C@@H](C)[C@@](O)(O2)C(=O)C(=O)N2CCCC[C@H]2C(=O)O[C@H]([C@H](C)C[C@@H]2CC[C@@H](OCCO)[C@H](OC)C2)CC(=O)[C@H](C)/C=C(\C)[C@@H](O)[C@@H](OC)C(=O)[C@H](C)C[C@H](C)/C=C/C=C/C=C/1C [Everolimus, everolimus] |  |  | Ave. (Xray score) ([3]; dose 10 mM): 0; Results (bone, animals with bone of 4) ([3]; dose 10 mM): No bone (0 of 4); Ave. (Xray score) ([3]; dose 15 mM): 2.5; Results (bone, animals with bone of 4) ([3]; dose 15 mM): Bone (3 of 4); Ave. (Xray score) ([3]; dose 20 mM): 3.75; Results (bone, animals with bone of 4) ([3]; dose 20 mM): Bone (4 of 4); Ave. (Xray score) ([3]; dose 25 mM): 4.75; Results (bone, animals with bone of 4) ([3]; dose 25 mM): Bone (4 of 4); Ave. (Xray score) ([3]; dose 30 mM): 3.75; Results (bone, animals with bone of 4) ([3]; dose 30 mM): Bone (3 of 4); Ave. (Xray score) ([3]; dose 35 mM): 4.75; Results (bone, animals with bone of 4) ([3]; dose 35 mM): Bone (4 of 4); De novo bone formation [3]: De novo bone formation is demonstrated locally
CO[C@@]12[C@H](COC(N)=O)C3=C(C(=O)C(C)=C(N)C3=O)N1C[C@@H]1N[C@@H]12 [Mitomycin C] | 12.0 |  | 
O=C1c2c(O)ccc(O)c2C(=O)c2c(NCCNCCO)ccc(NCCNCCO)c21 [Mitoxantrone, mitoxantrone] | 4.0 | caused cell lifting from culture plates | 
Cc1ccc(Nc2nccc(N(C)c3ccc4c(C)n(C)nc4c3)n2)cc1S(N)(=O)=O [Pazopanib] | 2.5 |  | 
COC1CC2CCC(C)C(O)(O2)C(=O)C(=O)N2CCCCC2C(=O)OC(C(C)CC2CCC(O)C(OC)C2)CC(=O)C(C)C=C(C)C(O)C(OC)C(=O)C(C)CC(C)C=CC=CC=C1C (centres unmarked) [Sirolimus, 9,10,12,13,14,21,22,23,24,25,26,27,32,33,34,34a-Hexadecahydro-9,27-dihydroxy-3-[2-[4-hydroxy-3-methoxycyclohexyl]-1-methylethyl]-10,21-dimethoxy-6,8,12,14,20,26-hexamethyl-23,27-epoxy-3H-pyrido[2,1-c][1,4]oxaazacyclohentriacontine-1,5,11,28,29(4H,6H,31H)-pentone] |  |  | Ave. (Xray score) ([3]; dose 10 mM): 0.25; Results (bone, animals with bone of 4) ([3]; dose 10 mM): Bone (1 of 4); Ave. (Xray score) ([3]; dose 15 mM): 0.5; Results (bone, animals with bone of 4) ([3]; dose 15 mM): Bone (1 of 4); Ave. (Xray score) ([3]; dose 20 mM): 0.75; Results (bone, animals with bone of 4) ([3]; dose 20 mM): Bone (1 of 4); Ave. (Xray score) ([3]; dose 25 mM): 2.75; Results (bone, animals with bone of 4) ([3]; dose 25 mM): Bone (3 of 4); Ave. (Xray score) ([3]; dose 30 mM): 3.5; Results (bone, animals with bone of 4) ([3]; dose 30 mM): Bone (3 of 4); Ave. (Xray score) ([3]; dose 35 mM): 4.25; Results (bone, animals with bone of 4) ([3]; dose 35 mM): Bone (4 of 4); De novo bone formation [3]: De novo bone formation is demonstrated locally
CCN(CC)CCNC(=O)c1c(C)[nH]c(/C=C2\C(=O)Nc3ccc(F)cc32)c1C [Sunitinib] | 4.0 |  | 
COc1cc([C@@H]2c3cc4c(cc3[C@@H](O[C@@H]3O[C@@H]5CO[C@@H](c6cccs6)O[C@H]5[C@H](O)[C@H]3O)[C@H]3COC(=O)[C@H]23)OCO4)cc(OC)c1O [Teniposide] | 7.0 |  | 
CC[C@@]1(O)C(=O)OCc2c1cc1n(c2=O)Cc2cc3c(CN(C)C)c(O)ccc3nc2-1 [Topotecan] | 4.0 |  | 
CCCCC(=O)OCC(=O)[C@]1(O)Cc2c(O)c3c(c(O)c2[C@@H](O[C@H]2C[C@H](NC(=O)C(F)(F)F)[C@H](O)[C@H](C)O2)C1)C(=O)c1c(OC)cccc1C3=O [Valrubicin] | 3.0 |  | 
CC[C@]1(O)C[C@H]2CN(CCc3c([nH]c4ccccc34)[C@@](C(=O)OC)(c3cc4c(cc3OC)N(C=O)[C@H]3[C@@](O)(C(=O)OC)[C@H](OC(C)=O)[C@]5(CC)C=CCN6CC[C@]43[C@@H]65)C2)C1 [Vincristine] | 5.0 |  | 
CCC1=C[C@@H]2CN(C1)Cc1c([nH]c3ccccc13)[C@@](C(=O)OC)(c1cc3c(cc1OC)N(C)[C@H]1[C@@](O)(C(=O)OC)[C@H](OC(C)=O)[C@]4(CC)C=CCN5CC[C@]31[C@@H]54)C2 [Vinorelbine tartrate] | 4.0 | caused cell lifting from culture plates | 
C=C1/C(=C\C=C2/CCC[C@]3(C)[C@@H]([C@H](C)CCCC(C)(C)O)CC[C@@H]23)C[C@@H](O)C[C@@H]1O [calcitriol] |  | caused cell lifting from culture plates | 
CCCCCCNC(=O)n1cc(F)c(=O)[nH]c1=O [carmofur, 5-fluoro-N-hexyl-2,4-dioxo-3,4-dihydropyrimidine-1(2H)-carboxamide] |  | caused cell lifting from culture plates | 
CCN(CC)CCOc1ccc(C(=C(Cl)c2ccccc2)c2ccccc2)cc1 [clomid] |  | caused cell lifting from culture plates | 
COC(=O)Nc1nc2cc(C(=O)c3ccc(F)cc3)ccc2[nH]1 [flubendazole] |  | caused cell lifting from culture plates | 
CCC(C)n1ncn(-c2ccc(N3CCN(c4ccc(OCC5COC(Cn6cncn6)(c6ccc(Cl)cc6Cl)O5)cc4)CC3)cc2)c1=O (centres unmarked) [itraconazole, 4-(4-(4-(4((2((1H-1,2,4-triazol-1-yl)methyl)-2-(2,4-dichlorophenyl)-1,3-dioxolan-4-yl)methoxy)phenyl)piperazin-1-yl)phenyl)-1-(sec-butyl)-1H-1,2,4-triazol-5(4H)-one] |  | caused cell lifting from culture plates | 

Reference: patent US11179501B2, “Bone morphogenetic protein pathway activation, compositions for ossification, and methods related thereto” (Emory University, priority 2011, dated 2021)
